Patent USRE37556E1, “Superoxide radical inhibitor” (Otsuka Pharmaceutical Co., Ltd., priority 1990, dated 2002)
Structures can show the parent of a compound that is named as a salt.

Experiments:
[1] = test system: human neutrophilic leukocytes; assay: Inhibition of superoxide radical (O2-) generation in FMLP-stimulated human neutrophilic leukocytes (ferricytochrome C method); type: cell-based
Excerpt: (1) Activity for inhibiting the generation of superoxide radical (O2^−) in human neutrophilic leukocytes
That is, a whole blood obtained from a healthy adult and treated by anticoagulation method was subjected to a dextranhypotonic treatment to obtain leukocyte cells. The leukocyte cells were then subjected to a density gradient ultracentrifugation by Ficoll-Paque to obtain a neutrophilic leukocyte fraction.
O2^− generation was examined by the ferricytochrome C method in accordance with the method of B. N. Cronstein et al. [Journal of Experimental Medicine, vol. […] Each test compound was dissolved in dimethyl sulfoxide (DMSO); the solution was added to neutrophilic leukocytes before the addition of FMLP; then, the neutrophilic leukocytes were pre-incubated at 37° C.

[2] = Homo sapiens, Leukocyte, pH 7.4, Table 15, O2- generation, 3x10^-7 M FMLP, cytochalasin B, 37° C., pH 7.4
[3] = Homo sapiens, Leukocyte, Table 16, comparative test present compounds vs prior art compounds, NE = not effective
[4] = Table 15, O2- generation, 3x10^-7 M FMLP, cytochalasin B, 37° C., pH 7.4

Row | Compound | IC50 [1, 2] | also measured
1 | COc1ccc(-c2nc(-c3ccc4c(c3)CCCN4)cs2)cc1OC.Cl |  | melting point: 156 to 158 °C
2 | CCOc1ccc(-c2nc(C3=CCN(C)CC3)cs2)cc1OCC |  | melting point: 81.2 to 83.6 °C
3 | CCOc1ccc(-c2nc(-c3cccc(CN(C)C)n3)cs2)cc1OCC.Cl.Cl |  | melting point: 195 °C (dec.)
4 | CCOc1ccc(-c2nc(-c3ccc(NCCN4CCCCC4)c(C(=O)OC)c3)cs2)cc1OCC.Cl.Cl |  | melting point: 93 to 94 °C
5 | COc1ccc(-c2nc(-c3ccc(O)c(C(=O)O)c3)cs2)cc1OC [compound 105, 4-(3-Carboxy-4-hydroxyphenyl)-2-(3,4-dimethoxyphenyl)thiazole, reference compound] |  | IC50 [1, 3]: 1000 nM
6 | CCOc1ccc(-c2nc(-c3cc(O)cc(C(=O)O)c3)cs2)cc1OCC [compound 110, 4-(3-Carboxy-5-hydroxyphenyl)-2-(3,4-diethoxyphenyl)thiazole, reference compound] |  | IC50 [1, 3]: 660 nM
7 | CCCCOc1ccc(-c2nc(-c3ccc(O)c(C(=O)O)c3)cs2)cc1OCCCC [compound 111, 4-(3-Carboxy-4-hydroxyphenyl)-2-(3,4-dibutoxyphenyl)thiazole, reference compound] |  | IC50 [1, 3]: 8300 nM
8 | CCOc1ccc(-c2nc(-c3cc(C(=O)O)ccc3OC)cs2)cc1OCC [compound 112, 4-(3-Carboxy-6-methoxyphenyl)-2-(3,4-diethoxyphenyl)thiazole, reference compound] |  | IC50 [1, 3]: 8700 nM
9 | CCOc1ccc(-c2nc(-c3ccccc3)cs2)cc1OCC [compound 116, 2-(3,4-Diethoxyphenyl)-4-phenylthiazole] | 370 nM | 
10 | CCOc1ccc(-c2nc(-c3ccc(NCCN4CCCCC4)c(C(=O)OC)c3)cs2)cc1OCC [compound 117, 2-(3,4-Diethoxyphenyl)-4-{3-methoxycarbonyl-4-[2-(1-piperidinyl)ethylamino]phenyl}thiazole dihydrochloride] | 460 nM | 
11 | CCOc1ccc(-c2nc(-c3ccc(O)c(C(=O)OCCN(C)C)c3)cs2)cc1OCC [compound 118, 2-(3,4-Diethoxyphenyl)-4-[4-hydroxy-3-(2-dimethylaminoethoxycarbonyl)phenyl]thiazole trihydrochloride] | 560 nM | 
12 | CCCCCCCCCOC(=O)c1cc(-c2csc(-c3ccc(OCC)c(OCC)c3)n2)ccc1O [compound 120, 2-(3,4-Diethoxyphenyl)-4-(4-hydroxy-3-n-nonyloxy-carbonylphenyl)thiazole] | 490 nM | 
13 | CCOc1ccc(-c2nc(-c3cccc(C(=O)N(C)C)n3)cs2)cc1OCC [compound 123, 2-(3,4-Diethoxyphenyl)-4-(2-dimethylaminocarbonyl-6-pyridyl)thiazole] | 380 nM | 
14 | CCOc1ccc(-c2nc(-c3ccc(OC)c(C(=O)O)c3)cs2)cc1OCC [compound 125] |  | IC50 [1, 4]: 190 nM
15 | CCOc1ccc(-c2nc(-c3cccc(CO)n3)cs2)cc1OCC [compound 127] |  | IC50 [1, 4]: 20 nM
16 | CCOc1ccc(-c2nc(-c3cccc(C(=O)N4CCN(C)CC4)n3)cs2)cc1OCC [compound 128] |  | IC50 [1, 4]: 580 nM
17 | CCOc1ccc(-c2nc(-c3cc(C(=O)O)c4oc(C)cc4c3)cs2)cc1OCC [compound 130, 2-(3,4-Diethoxyphenyl)-4-(2-methyl-7-carboxy-5-benzofuryl)thiazole] | 240 nM | 
18 | CCOC(=O)c1csc(-c2csc(-c3ccc(OCC)c(OCC)c3)n2)n1 [compound 131, 2-(3,4-Diethoxyphenyl)-4-(4-ethoxycarbonyl-2-thiazolyl)thiazole] | 190 nM | 
19 | CCOc1ccc(-c2nc(-c3ccc(OCC)c(C(=O)O)c3)cs2)cc1OCC [compound 134, 2-(3,4-Diethoxyphenyl)-4-(4-ethoxy-3-carboxyphenyl)thiazole] | 130 nM | 
20 | CCCCOC(=O)c1cc(-c2csc(-c3ccc(OCC)c(OCC)c3)n2)ccc1OCCCC [compound 136, 2-(3,4-Diethoxyphenyl)-4-(3-n-butoxycarbonyl-4-n-butoxyphenyl)thiazole] | 130 nM | 
21 | CCCCOc1ccc(-c2csc(-c3ccc(OCC)c(OCC)c3)n2)cc1C(=O)O [compound 137, 2-(3,4-Diethoxyphenyl)-4-(3-carboxy-4-n-butoxyphenyl)thiazole] | 110 nM | 
22 | CCCOc1ccc(-c2csc(-c3ccc(OCC)c(OCC)c3)n2)cc1C(=O)O [compound 138, 2-(3,4-Diethoxyphenyl)-4-(3-carboxy-4-n-propoxyphenyl)thiazole] | 140 nM | 
23 | CCOc1ccc(-c2nc(-c3cc(C=O)c(O)c(C(=O)O)c3)cs2)cc1OCC [compound 142, 2-(3,4-Diethoxyphenyl)-4-(3-carboxy-4-hydroxy-5-formylphenyl)thiazole] | 120 nM | 
24 | CCOc1ccc(-c2nc(-c3ccc(C(=O)O)cn3)cs2)cc1OCC [compound 143, 2-(3,4-Diethoxyphenyl)-4-(3-carboxy-6-pyridyl)-thiazole] | 270 nM | 

Second part, led by results:

Row | IC50 [1, 2] | Compound | also measured
25 | 10 nM | CCOc1ccc(-c2nc(-c3cc(C(=O)OC)cc([N+](=O)[O-])c3O)cs2)cc1OCC [compound 101, 4-(3-Methoxycarbonyl-5-nitro-6-hydroxyphenyl)-2-(3,4-diethoxyphenyl)thiazole] | 
26 | 69 nM | CCOc1ccc(-c2nc(-c3cc(C(=O)OC)cc(N)c3O)cs2)cc1OCC [compound 102, 4-(3-Methoxycarbonyl-5-amino-6-hydroxyphenyl)-2-(3,4-diethoxyphenyl)thiazole] | 
27 | 94 nM | C=CCc1cc(C(=O)O)cc(-c2csc(-c3ccc(OCC)c(OCC)c3)n2)c1O [compound 103, 4-(3-Carboxy-5-allyl-6-hydroxyphenyl)-2-(3,4-diethoxy-phenyl)thiazole] | 
28 | 34 nM | CCOc1cc(-c2nc(-c3cc(C(=O)O)ccc3O)cs2)ccc1OC [compound 104, 4-(3-Carboxy-6-hydroxyphenyl)-2-(3-ethoxy-4-methoxy-phenyl)thiazole] | IC50 [1, 3]: 34 nM
29 | 25 nM | CCOc1ccc(-c2nc(-c3cc(C(=O)O)cc(N)c3O)cs2)cc1OCC [compound 113, 4-(2-Hydroxy-3-amino-5-carboxyphenyl)-2-(3,4-diethoxy-phenyl)thiazole hydrochloride] | 
30 | 100 nM | CCCc1cc(C(=O)O)cc(-c2csc(-c3ccc(OCC)c(OCC)c3)n2)c1O [compound 114, 4-(2-Hydroxy-3-propyl-5-carboxyphenyl)-2-(3,4-diethoxy-phenyl)thiazole] | 
31 | 80 nM | CCOc1ccc(-c2nc(-c3cccc(C(=O)O)n3)cs2)cc1OCC [compound 115, 4-(6-Carboxy-2-pyridyl)-2-(3,4-diethoxyphenyl)-thiazole] | 
32 | 24 nM | CCOc1ccc(-c2nc(-c3ccc(C(=O)O)[nH]3)cs2)cc1OCC [compound 119, 2-(3,4-Diethoxyphenyl)-4-(2-carboxy-5-pyrrolyl)-thiazole] | 
33 | 38 nM | CCOc1ccc(-c2nc(-c3ccc(C(=O)OC)o3)cs2)cc1OCC [compound 121, 2-(3,4-Diethoxyphenyl)-4-(2-methoxycarbonyl-5-furyl)thiazole] | 
34 | 19 nM | CCOc1ccc(-c2nc(-c3ccc(C(=O)O)o3)cs2)cc1OCC [compound 122, 2-(3,4-Diethoxyphenyl)-4-(2-carboxy-5-furyl)-thiazole] | 
35 | 14 nM | CCOc1ccc(-c2nc(-c3cc(CC)c(O)c(C(=O)O)c3)cs2)cc1OCC [compound 126, 2-(3,4-Diethoxyphenyl)-4-(3-carboxy-4-hydroxy-5-ethylphenyl)thiazole] | 
36 | 82 nM | CCOc1ccc(-c2nc(-c3ccc(C(=O)O)s3)cs2)cc1OCC [compound 129, 2-(3,4-Diethoxyphenyl)-4-(2-carboxy-5-thienyl)-thiazole] | 
37 | 50 nM | CCOc1ccc(-c2nc(-c3nc(C(=O)O)cs3)cs2)cc1OCC [compound 132, 2-(3,4-Diethoxyphenyl)-4-(4-carboxy-2-thiazolyl)-thiazole] | 
38 | 9.2 nM | CCOc1ccc(-c2nc(-c3ccc(O)c(CO)c3)cs2)cc1OCC [compound 133, 2-(3,4-Diethoxyphenyl)-4-(4-hydroxy-3-hydroxymethylphenyl)thiazole] | 
39 | 35 nM | CCOc1ccc(-c2nc(-c3cncc(C(=O)O)c3)cs2)cc1OCC [compound 135, 2-(3,4-Diethoxyphenyl)-4-(3-carboxy-5-pyridyl)-thiazole hydrochloride] | 
40 | 100 nM | CCOc1ccc(-c2nc(-c3cc4c(c(C(=O)O)c3)OC(C)(C)C4)cs2)cc1OCC [compound 139, 2-(3,4-Diethoxyphenyl)-4-(2,2-dimethyl-7-carboxy-2,3-dihydrobenzofuran-5-yl)thiazole] | 
41 | 4.7 nM | CC=Cc1cc(-c2csc(-c3ccc(OCC)c(OCC)c3)n2)cc(C(=O)O)c1O [compound 140, 2-(3,4-Diethoxyphenyl)-4-[3-carboxy-4-hydroxy-5-(1-propenyl)phenyl]thiazole] | 
42 | 94 nM | CCOc1ccc(-c2nc(-c3cnc(C)c(C(=O)O)c3)cs2)cc1OCC [compound 141, 2-(3,4-Diethoxyphenyl)-4-(2-methyl-3-carboxy-5-pyridyl)thiazole] | 
43 | 35 nM | CCOc1ccc(-c2nc(-c3ccc(C(=O)O)nc3)cs2)cc1OCC [compound 144, 2-(3,4-Diethoxyphenyl)-4-(2-carboxy-5-pyridyl)-thiazole] | 
44 | 110 nM | CCOc1ccc(-c2nc(-c3cc(Br)c(O)c(C(=O)O)c3)cs2)cc1OCC [compound 145, 2-(3,4-Diethoxyphenyl)-4-(3-carboxy-4-hydroxy-5-bromophenyl)thiazole] | 
45 | 110 nM | CCOc1ccc(-c2nc(-c3ccc(N(C)C)c(C(=O)O)c3)cs2)cc1OCC [compound 146, 2-(3,4-Diethoxyphenyl)-4-(3-carboxy-4-dimethylaminophenyl)thiazole] | 
46 | 10 nM | C=Cc1cc(-c2csc(-c3ccc(OCC)c(OCC)c3)n2)cc(C(=O)O)c1O [compound 147, 2-(3,4-Diethoxyphenyl)-4-(3-carboxy-4-hydroxy-5-vinylphenyl)thiazole] | 
